The values that follow are results of earlier work, collected in paper PMC12833858 (Journal of Medicinal Chemistry, 2026).

For orientation: Kd means the equilibrium constant for the complex coming apart.

Series [1] deals with T1, Aurora A (Homo sapiens, UniProt O14965).
T1 sequence (O14965 1-403): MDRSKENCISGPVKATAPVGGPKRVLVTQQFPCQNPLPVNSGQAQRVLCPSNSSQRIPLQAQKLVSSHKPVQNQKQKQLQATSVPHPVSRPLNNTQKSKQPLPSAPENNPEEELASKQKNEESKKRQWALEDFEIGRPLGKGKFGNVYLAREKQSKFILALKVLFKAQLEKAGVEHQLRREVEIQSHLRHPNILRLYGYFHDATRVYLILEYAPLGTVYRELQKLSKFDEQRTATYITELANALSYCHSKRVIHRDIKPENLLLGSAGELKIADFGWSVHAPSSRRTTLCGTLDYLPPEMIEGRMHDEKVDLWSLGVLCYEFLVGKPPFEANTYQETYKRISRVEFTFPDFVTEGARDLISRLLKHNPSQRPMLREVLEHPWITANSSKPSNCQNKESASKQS
Set-up: expressed in transfected cells. The conditions noted are these: reported value, HiBiT assay in MV4-11 pediatric leukemia cells. On the technique in general: With HiBiT, luminescence reflects the tagged protein that the partner subunit can reach.

Series [2] deals with T1, Aurora A. Also on record: method as in Adhikari et al. To be noted: isothermal titration calorimetry, n = 4; ref Adhikari et al.; read-out: KD Aurora A (ITC). In general terms: Isothermal titration calorimetry measures the heat released or taken up as one component is titrated into another.

For the molecule `COc1cc(Nc2ncc3c(n2)-c2ccc(Cl)cc2C(c2c(F)cccc2OC)=NC3)ccc1C(=O)NCCOCCOCCNC(=O)COc1cccc2c1C(=O)N(C1CCC(=O)NC1=O)C2=O` (centres unmarked) [JB170], in series [1], the DC50 is 28 nM. For the same molecule, the dissociation constant Kd in series [2] was 375 ± 22 nM.
